Source: patent US9458165B2, “DOT1L inhibitors” (Dana-Farber Cancer Institute, Inc., priority 2014, dated 2016)
Like-named read-outs stand apart in the source and are kept apart here.

Assays:
[1] = Pharmacokinetic study, intravenous 5 mg/kg; format: in vivo; conditions: CD1 mice
Experimental: Pharmacokinetic studies of the compound of Example 1 (i.e. CC-006) and previously disclosed compounds EPZ004777, CC001 (see U.S. 2014/0051654) and FED1 were performed in CD1 mice following intravenous administration, as detailed in Table 1.
Mean plasma concentration-time profiles representative of the compound of Example 1 (i.e. CC-006) after intravenous dosing (5 mg kg^−1) are shown in FIG. 8A (data represent the mean and s.d. (n=3)). […] From the pharmacokinetic properties, the compound of Example 1 (i.e. CC-006) has potential for use in treatment using intravenous administration due to its long half-life, as compared to subcutaneous administration.

His6-DOT1L = His6-DOT1L (Homo sapiens, UniProt Q8TEK3); test: ALPHA assay (AlphaScreen) of probe displacement from DOT1L; format: binding; conditions: FIG. 9
Description: In and ALPHA assay binding of binding partners captured on the beads leads to an energy transfer from one bead to the other, ultimately producing a luminescent signal. Alpha assays require two bead types: donor beads and acceptor beads. Donor beads contain a photosensitizer, phthalocyanine, which converts ambient oxygen to an excited and reactive form of O2, singlet oxygen, upon illumination at 680 nm. Within its 4 μsec half-life, singlet oxygen can diffuse approximately 200 nm in solution. If an Acceptor bead is within that distance, energy is transferred from the singlet oxygen to thioxene derivatives within the Acceptor bead, resulting in light production. If the Donor bead is not in proximity of an Acceptor bead, the singlet oxygen falls to ground state and no signal is produced. […]
Two stock solutions are made at 2× the final concentration in Alpha buffer. […] Finally, 10 μL of solution B is added to the 384 well alpha plate, the plate is spun down and incubated at room temperature and read on a plate reader.
Plates can be read with an Envision plate reader, which comes with a predefined AlphaScreen program that has the correct excitation and emission wavelengths, cutoff filters, delay time, etc. […]
Plates are incubated at room temperature for 20 minutes, then read on plate reader.

MV411 = test: Cellular activity in DOT1L related leukemia cell line (FIG. 10A); format: cell-based; conditions: compared to EPZ4777, FIG. 10A
[2] = Cellular assays (not specified at the place); format: cell-based
Experimental: The compounds of Examples 1-4 and known DOT1L inhibitors were analyzed in a High Content Imaging Assay (HCI).

[3] = Pharmacokinetic study, IP 100 mg/kg, whole blood concentration; format: in vivo, male CD1 mice; conditions: for AUC(0-inf) / AUC(0-t) / Cmax / half-life / Tmax / concentration at 0.083 hr / concentration at 0.25 hr / concentration at 0.5 hr / concentration at 1 h / concentration at 2 h / concentration at 4 h / concentration at 8 h / concentration at 24 h: male, CD1, mouse, ip, 100 mg/kg
Experimental: Pharmacokinetic studies in CD1 mice using the compound of Example 1 (i.e. CC-006) (100 mg/kg, IP dose) were also performed.

[4] = read-out: Concentration Mouse#1
[5] = read-out: Concentration Mouse#2
[6] = read-out: Concentration Mouse#3

Sequence of His6-DOT1L (Q8TEK3 whole entry): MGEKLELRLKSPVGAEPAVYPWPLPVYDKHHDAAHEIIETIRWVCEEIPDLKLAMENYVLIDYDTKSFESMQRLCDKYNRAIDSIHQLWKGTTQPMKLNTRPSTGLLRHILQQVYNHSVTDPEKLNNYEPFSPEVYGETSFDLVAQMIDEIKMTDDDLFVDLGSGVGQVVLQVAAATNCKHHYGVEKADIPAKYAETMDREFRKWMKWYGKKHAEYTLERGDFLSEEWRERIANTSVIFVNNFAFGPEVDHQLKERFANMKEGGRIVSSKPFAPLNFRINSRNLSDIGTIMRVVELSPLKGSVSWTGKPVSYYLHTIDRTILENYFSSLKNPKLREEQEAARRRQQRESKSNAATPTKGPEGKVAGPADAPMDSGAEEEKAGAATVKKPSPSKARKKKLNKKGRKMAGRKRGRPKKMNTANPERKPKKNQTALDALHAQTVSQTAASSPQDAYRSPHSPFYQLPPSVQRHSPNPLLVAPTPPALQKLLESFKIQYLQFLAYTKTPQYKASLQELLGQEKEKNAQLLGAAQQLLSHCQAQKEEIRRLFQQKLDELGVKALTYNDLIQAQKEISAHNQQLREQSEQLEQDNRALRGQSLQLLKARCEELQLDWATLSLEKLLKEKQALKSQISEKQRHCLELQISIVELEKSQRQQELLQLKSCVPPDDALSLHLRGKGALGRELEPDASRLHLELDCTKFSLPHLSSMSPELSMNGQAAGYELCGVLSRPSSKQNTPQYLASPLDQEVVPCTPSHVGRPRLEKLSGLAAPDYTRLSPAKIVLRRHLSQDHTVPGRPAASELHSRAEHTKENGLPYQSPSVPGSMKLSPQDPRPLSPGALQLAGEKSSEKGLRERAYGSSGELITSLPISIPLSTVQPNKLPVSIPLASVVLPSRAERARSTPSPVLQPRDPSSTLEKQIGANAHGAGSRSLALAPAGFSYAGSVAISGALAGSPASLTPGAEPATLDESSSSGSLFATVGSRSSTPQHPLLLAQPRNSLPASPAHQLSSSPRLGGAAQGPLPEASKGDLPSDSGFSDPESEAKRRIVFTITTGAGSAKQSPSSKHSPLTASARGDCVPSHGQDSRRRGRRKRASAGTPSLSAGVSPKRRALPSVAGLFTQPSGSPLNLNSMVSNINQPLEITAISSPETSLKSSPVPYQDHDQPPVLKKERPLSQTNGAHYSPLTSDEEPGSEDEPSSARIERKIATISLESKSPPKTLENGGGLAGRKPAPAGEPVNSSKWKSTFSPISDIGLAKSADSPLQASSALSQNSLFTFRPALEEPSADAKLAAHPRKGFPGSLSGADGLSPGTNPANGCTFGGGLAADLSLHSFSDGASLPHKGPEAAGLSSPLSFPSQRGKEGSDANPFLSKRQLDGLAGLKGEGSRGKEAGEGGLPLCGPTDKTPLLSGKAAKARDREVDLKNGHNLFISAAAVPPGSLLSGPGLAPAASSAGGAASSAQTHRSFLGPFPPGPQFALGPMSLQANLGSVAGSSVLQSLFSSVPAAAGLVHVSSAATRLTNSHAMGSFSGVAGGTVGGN

half-life relative to the half-life of EPZ004777 [1]: approximately 4.3 ×
half-life relative to the half-life of FED1 [1]: ~10.5 ×
drug exposure (area under the curve (AUC)) ([1]; 5 mg/kg, FIG. 8B): good drug exposure
half-life ([1]; mouse, plasma, 5 mg/kg, FIG. 8B, read-out: half-life (T1/2) (converted)): 12.6 h
binding to DOT1L (ALPHA screen) (His6-DOT1L): binds to DOT1L
AUC(0-inf) ([3]; read-out: AUCINF Mean): 86900 ng·h/mL
AUC(0-inf) ([3]; read-out: AUCINF Mouse#1): 58900 ng·h/mL
AUC(0-inf) ([3]; read-out: AUCINF Mouse#2): 72900 ng·h/mL
AUC(0-inf) ([3]; read-out: AUCINF Mouse#3): 129000 ng·h/mL
AUC(0-t) ([3]; read-out: AUClast Mean): 84400 ng·h/mL
AUC(0-t) ([3]; read-out: AUClast Mouse#1): 57100 ng·h/mL
AUC(0-t) ([3]; read-out: AUClast Mouse#2): 70500 ng·h/mL
AUC(0-t) ([3]; read-out: AUClast Mouse#3): 126000 ng·h/mL
Cmax ([3]; read-out: Cmax Mean): 15300 ng/mL
Cmax ([3]; read-out: Cmax Mouse#1): 13100 ng/mL
Cmax ([3]; read-out: Cmax Mouse#2): 15000 ng/mL
Cmax ([3]; read-out: Cmax Mouse#3): 17800 ng/mL
half-life ([3]; read-out: Terminal t1/2 Mean (converted)): 4.65 h
half-life ([3]; read-out: Terminal t1/2 Mouse#1 (converted)): 4.64 h
half-life ([3]; read-out: Terminal t1/2 Mouse#2 (converted)): 4.8 h
half-life ([3]; read-out: Terminal t1/2 Mouse#3 (converted)): 4.51 h
Tmax ([3]; read-out: Tmax Mean): 0.833 h
Tmax ([3]; read-out: Tmax Mouse#1): 1 h
Tmax ([3]; read-out: Tmax Mouse#2): 1 h
Tmax ([3]; read-out: Tmax Mouse#3): 0.5 h
concentration at 0.083 hr ([3]; read-out: Concentration Mean): 5350 ng/mL
concentration at 0.083 hr [3, 4]: 4600 ng/mL
concentration at 0.083 hr [3, 5]: 5940 ng/mL
concentration at 0.083 hr [3, 6]: 5500 ng/mL
concentration at 0.25 hr ([3]; read-out: Concentration Mean): 12700 ng/mL
concentration at 0.25 hr [3, 4]: 12000 ng/mL
concentration at 0.25 hr [3, 5]: 13400 ng/mL
concentration at 0.25 hr [3, 6]: 12800 ng/mL
concentration at 0.5 hr ([3]; read-out: Concentration Mean): 14300 ng/mL
concentration at 0.5 hr [3, 4]: 11100 ng/mL
concentration at 0.5 hr [3, 5]: 14100 ng/mL
concentration at 0.5 hr [3, 6]: 17800 ng/mL
concentration at 1 h ([3]; read-out: Concentration Mean): 15200 ng/mL
concentration at 1 h [3, 4]: 13100 ng/mL
concentration at 1 h [3, 5]: 15000 ng/mL
concentration at 1 h [3, 6]: 17500 ng/mL
concentration at 2 h ([3]; read-out: Concentration Mean): 12600 ng/mL
concentration at 2 h [3, 4]: 10500 ng/mL
concentration at 2 h [3, 5]: 11300 ng/mL
concentration at 2 h [3, 6]: 16100 ng/mL
concentration at 4 h ([3]; read-out: Concentration Mean): 7450 ng/mL
concentration at 4 h [3, 4]: 4210 ng/mL
concentration at 4 h [3, 5]: 5380 ng/mL
concentration at 4 h [3, 6]: 12800 ng/mL
concentration at 8 h ([3]; read-out: Concentration Mean): 2000 ng/mL
concentration at 8 h [3, 4]: 957 ng/mL
concentration at 8 h [3, 5]: 1460 ng/mL
concentration at 8 h [3, 6]: 3570 ng/mL
concentration at 24 h ([3]; read-out: Concentration Mean): 382 ng/mL
concentration at 24 h [3, 4]: 266 ng/mL
concentration at 24 h [3, 5]: 350 ng/mL
concentration at 24 h [3, 6]: 531 ng/mL
Concentration Mean ([3]; sampling time 0 hr): BQL
Concentration Mouse#1 ([3]; sampling time 0 hr): BQL
Concentration Mouse#2 ([3]; sampling time 0 hr): BQL
Concentration Mouse#3 ([3]; sampling time 0 hr): BQL
SMILES: CC(C)N(C[C@H]1C[C@@H](n2cc(C#N)c3c(N)ncnc32)[C@H](O)[C@@H]1O)C1CC(CCc2nc3ccc(C(C)(C)C)cc3[nH]2)C1 (stereo partly drawn) [Example 1, 4-amino-7-((1R,2S,3R,4R)-4-(((3-(2-(6-(tert-butyl)-1H-benzo[d]imidazol-2-yl)ethyl)cyclobutyl)(isopropyl)amino)methyl)-2,3-dihydroxycyclopentyl)-7H-pyrrolo[2,3-d]pyrimidine-5-carbonitrile]
cellular activity on DOT1L related leukemia (MV411): more potent than EPZ4777
cellular activity compared to CC0001 [2]: largely improved cellular activity compared to CC0001
